This note sets out measurements from ChEMBL document CHEMBL1153065, “Synthesis, radiolabeling and preliminary in vivo evaluation of [18F]FE-PE2I, a new probe for the dopamine transporter” (Bioorg Med Chem Lett, 2009).

pKi: −log10 of the molar value.

For data set [1], the target named is Sodium-dependent dopamine transporter (Rattus norvegicus, UniProt P23977). The data set can be described thus: Displacement of [125I]PE2I from rat DAT. (Displacement assays read how much labelled ligand stays bound in the presence of the test substance.)
The subject of another data set is Brain. The data set can be described thus: Drug uptake in cynomolgus monkey brain at 59 MBq after 13 mins. In kind it is ADME, tissue-based, Macaca fascicularis. To be noted: in vivo.
The nature of data set [2]: Ratio of drug uptake in cerebellum to caudate in cynomolgus monkey at 59 MBq after 105 mins. In kind it is ADME, Macaca fascicularis. To be noted: in vivo, 1.75 h.
Data set [3] is described as follows: Ratio of drug uptake in cerebellum to putamen in cynomolgus monkey at 59 MBq after 105 mins. In kind it is ADME, Macaca fascicularis. The settings on record: in vivo, 1.75 h.
A short description of data set [4]: Ratio of drug uptake in cerebellum to caudate in cynomolgus monkey by GBR-12909 displacement assay. To be noted: in vivo. Also on record: species or system Macaca fascicularis.
Data set [5] is described as follows: Ratio of drug uptake in cerebellum to putamen in cynomolgus monkey by GBR-12909 displacement assay. The settings on record: in vivo. Details: species or system Macaca fascicularis.
Another data set relates to Plasma. The data set can be described thus: Metabolic stability in cynomolgus monkey venous plasma assessed as compound recovery by radio-HPLC. It is filed as ADME, cell-free, Macaca fascicularis.

Sodium-dependent dopamine transporter, sequence (P23977 whole entry): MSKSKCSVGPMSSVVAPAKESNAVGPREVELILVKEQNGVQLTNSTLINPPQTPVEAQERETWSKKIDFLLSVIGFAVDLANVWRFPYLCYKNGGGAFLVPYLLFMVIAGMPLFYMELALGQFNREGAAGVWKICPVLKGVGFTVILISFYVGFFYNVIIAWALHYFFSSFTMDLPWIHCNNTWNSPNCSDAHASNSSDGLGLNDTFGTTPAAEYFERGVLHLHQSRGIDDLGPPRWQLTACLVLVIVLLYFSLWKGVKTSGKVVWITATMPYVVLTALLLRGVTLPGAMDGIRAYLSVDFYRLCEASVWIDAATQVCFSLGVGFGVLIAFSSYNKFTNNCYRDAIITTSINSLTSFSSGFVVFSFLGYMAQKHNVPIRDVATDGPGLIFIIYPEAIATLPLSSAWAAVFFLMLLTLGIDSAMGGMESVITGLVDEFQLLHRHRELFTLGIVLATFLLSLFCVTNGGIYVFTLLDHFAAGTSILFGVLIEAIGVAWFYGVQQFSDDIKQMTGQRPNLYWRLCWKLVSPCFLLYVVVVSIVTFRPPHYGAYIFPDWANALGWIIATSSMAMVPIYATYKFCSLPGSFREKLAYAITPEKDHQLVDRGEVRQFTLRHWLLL

Regarding `COC(=O)[C@H]1[C@@H](c2ccc(C)cc2)C[C@@H]2CC[C@H]1N2C/C=C/I`, in data set [1], the pKi (in general, the negative decadic logarithm of the Ki, by convention in mol/L) is 7.80.
Take `Cc1ccc([C@H]2C[C@@H]3CC[C@H]([C@H]2C(=O)OCC[18F])N3C/C=C/I)cc1`: in the data set on Brain, the SUV is recorded as 540%. Also, the Ratio in data set [2] is given as 7.5; in data set [3] it was 7.9; in data set [4] it was 1.4; in data set [5] it was 1.3. The Stability with Plasma turned out to be 91%.
For the compound `Cc1ccc([C@H]2C[C@@H]3CC[C@H]([C@H]2C(=O)OCCF)N3C/C=C/I)cc1`, the negative logarithm of the Ki (pKi) in data set [1] is 7.92.
